Reference: patent publication US10702527B2, “Combination therapy of transcription inhibitors and kinase inhibitors” (Dana-Farber Cancer Institute, Inc., priority 2015, dated 2020)
“Also recorded” adds a separate entry of the source.

Columns and labels:
[1] = test system: gene expression in RT112 cells; test: RNA-Seq gene expression in RT112 cells; format: cell-based, human; conditions: for gene expression (transcriptional programs) by RNAseq: BGJ398 1 μM, THZ1 100 nM, one or seven days
Procedure: (§3) RNA was isolated from untreated RT112 cells and RT112 cells treated with 1 μM BGJ398, 100 nM THZ1, or combination treatment with THZ1 plus BGJ398, and similarly, untreated PC9 cells and PC9 cells treated with 1 μM erlotinib, 100 nM THZ1, or THZ1 plus erlotinib. Both cell lines were harvested at two time-points: following one day or seven days of treatment. Cell number was determined and total RNA was isolated using the RNeasy micro kit (Qiagen). Ambion® ERCC RNA Spike-In Mix (Life technology) was added to total RNA. cDNA libraries were prepared using the NEBNext® Ultra™ RNA Library Prep Kit for Illumina (New England Biolabs) according to the manufacturer's instructions. Library integrity was assessed on an Agilent 2100 Bioanalyzer (Agilent). Sequencing was performed on the Hiseq 2000 platform (Illumina) to a minimum depth of 30 million reads per sample.
(§4) QC-passed reads were aligned to the human reference genome (hg19) using PRADA.^46 Transcript per million (TPM) values were determined using RSEM.^47 TPM values were normalized with the voom transformation.^48 Expression changes for each gene in treated cells compared to untreated controls was determined using the limma package^49 as log 2-transformed fold change and a multiple-testing adjusted p-value. Heatmap visualization was performed using R. Log 2-transformed fold changes were not scaled and were colored on a blue-red scale.
(§5) Differentially expressed genes (defined as log 2-fold change value greater than 1.5 or less than −1.5, and p-value less than 0.01) were input into Ingenuity Pathway Analysis (www.ingenuity.com), to identify a) enriched pathways, 2) upstream regulators, andd 3) downstream effectors. […] We considered an activation z-score of greater than [2] to be activated, and less than [−2] to be inhibited. Gene ontology term (GO-term) enrichment analysis was performed using the Database for Annotation, Visualization and Integrated Discovery (DAVID) v6.7 (david.abcc.ncifcrf.gov/).

RT112 cells = test: Resistance emergence in RT112 cells under BGJ398 treatment (FIG. 1); format: cell-based, human
Source text: One mechanism of resistance may be through the upregulation of NRG1 due to signaling via ERBB2/ERBB3 and is rapid (a matter of days) and reversible (Wang et al., Oncogene, 2015, 34(17):2167-77). The resistance may also be associated with EMT.

[2] = test system: H3K27Ac enhancer signal in RT112 cells; test: H3K27Ac ChIP-Seq in RT112 cells; format: cell-based, human; conditions: seven days of treatment, vs DMSO
Procedure: RT112 and PC9 cells treated for seven days with vehicle, 1 μM BGJ398 and erlotinib (respectively), 100 nM THZ1, or BGJ398/erlotinib in combination with THZ1. H3K27Ac ChIP-Seq was performed using Abcam antibody (cat # AB4729, lot # GR183922-1) as previously described,^8 with minor modifications (cells were crosslinked for 20 min, Dynal magnetic beads (Sigma) were bound with 10 μg of the indicated antibody).
Illumina sequencing libraries were generated and data was processed as described elsewhere.^50 In brief, libraries were generated for ChIP samples following the Illumina TruSeq™ DNA Sample Preparation v2 kit protocol with minor changes. All ChIP-Seq data sets were aligned using bowtie 1.0.1 to build […] of the human genome with -p 4—best -k 2 -m 2—sam -1 40. Wiggle files for gene tracks were created using Macs 1.4.2 with options -w -S -space=50 to count reads in 50 bp bins.
Regions enriched in H3K27Ac were identified using SICER^51 with corresponding input DNA control, and parameters -t 1 (max 1 read per position), -w 200 (window size 200), -i 150 (fragment size), -g 200 (gap size 200; 1 window), -t 0.74 (interrogable genome fraction), -e 200 (e-value), -p 1e-9 (significance p value cutoff). […]
Density of H3K27Ac ChIP-Seq signal (FIG. 51F) was calculated using bamToGFF (github.com/BradnerLab/pipeline). […]

[3] = test system: RT112 bladder carcinoma cells (FGFR3-dependent); test: Colony formation assay in RT112 cells; format: cell-based, human; conditions: for colony formation: 4 weeks, crystal violet staining, relative to control; for colony formation, transcription inhibitor alone or in combination with BGJ398: one week, 24-well plate (FIG. 35)
Source text: Media (and drug) were replaced weekly.

[4] = test system: signaling pathways in A549 cells; test: Western blot / immunoblot of signaling pathways in A549 cells; format: cell-based; conditions: 24 hours
Procedure: (§1) Cells were lysed in RIPA buffer (Roche) containing protease inhibitors (Roche) and Phosphatase Inhibitor Cocktails I and II (CalBioChem). Protein concentrations were determined using a Bradford assay (Bio-Rad). Proteins were separated by SDS gel electrophoresis using NuPAGE 4-12% Bis-Tris gels (Life Technologies) in MOPS buffer. Resolved protein was transferred to nitrocellulose membranes, blocked in 10% milk and probed with primary antibodies recognizing EGFR (2232S), p-EGFR (2234S), FGFR3 (4574S), p-FGFR (3471S), HER2/ERBB2 (2165), p-ERBB2 (2243S), STAT1 (9172), p-STAT1 (9167), STAT3 (4904S), p-STAT3 (9145S), AKT (9272S), p-AKT (4060P), ERK (4695S), p-ERK (4370S), FRA1 (5281S), CDK12 (11973) (all from Cell Signaling Technology), CDK7 (sc-723, Santa Cruz), actin (A5441, Sigma-Aldrich) and vinculin (V9131, Sigma-Aldrich) in 5% milk or 3% bovine serum albumin as recommended by the manufacturer. After incubation with the appropriate secondary antibody (Pierce anti-mouse IgG/IgM (31444, Thermo Scientific) and anti-rabbit IgG (31460, Thermo Scientific)), blots were imaged on film.
(§2) These two lines were both shown in Sharma et al. (Cell, 2010, 141(1):69-80) to employ the STAT3 feedback loop. p-ERK was decreased in the combination treatment arm. […] Therefore, there are some generalizable findings across the four lines.

[5] = test system: signaling pathways in RT112 cells; test: Western blot / immunoblot of signaling pathways in RT112 cells; format: cell-based, human; conditions: 24 hours
Procedure: as §1
Western blots were used to characterize the signaling pathways in selected cell lines. […] These doses were also used in the colony formation assays and the RNAseq and ChIPseq experiments. […] However, it could be blocking the activation of downstream STAT3 targets. […] FGFR is known to be a bypass mechanism in PC9, but this was not seen with THZ1 treatment or with the combination treatment. […] This is unexpected, given that THZ1 should block CDK7-mediated RNAPII phosphorylation. This may be due to the dose or the time point assayed.

[6] = test system: gene expression in PC9 cells; test: RNA-Seq gene expression in PC9 cells; conditions: erlotinib 1 μM, THZ1 100 nM, one or seven days
Procedure: as §3, §4, §5

IL-6 = IL-6 in PC9 cell culture supernatants (Luminex cytokine assay, ELISA); format: cell-based; conditions: PC9 cells; erlotinib 1 μM, THZ1 100 nM; 24 and 72 hours
Procedure: A Luminex Multiplex Custom Cytokine assay was used to assay cytokines in RT112 and PC9 cell culture supernatants treated with vehicle, 1 μM BGJ398 or erlotinib respectively, 100 nM THZ1, or THZ1 in combination with BGJ398 or erlotinib, at 24 and 72 hours. Cytokines assayed for were: CCL2/MCP-1, CCL5/RANTES, CXLC5, IL-1 alpha and beta, IL-2, IL-4, IL-5, IL-6, IL-8, IL-10, IL-17a, GM-CSF, TNF-alpha, VEGF, INF-gamma. IL-6 was also assayed in cell culture supernatants using the Quantikine IL-6 ELISA kit (D6050, R&D Systems) as per the manufacturer's protocol.

[7] = test system: signaling pathways in H23 cells; test: Western blot / immunoblot of signaling pathways in H23 cells; format: cell-based; conditions: 24 hours
Procedure: as §1, §2

[8] = test system: signaling pathways in PC9 cells; test: Western blot / immunoblot of signaling pathways in PC9 cells; format: cell-based; conditions: 24 hours, erlotinib 1 μM, THZ1 100 nM
Procedure: as §1
Western blots were used to characterize the signaling pathways in selected cell lines. The assays were performed at 24 hours under the following conditions: untreated, treated with 1 μM erlotinib, treated with 100 nM THZ1, or treated with a combination of erlotinib and THZ1, in PC9 and RT112 cells. These doses were also used in the colony formation assays and the RNAseq and ChIPseq experiments. […] However, it could be blocking the activation of downstream STAT3 targets. […] FGFR is known to be a bypass mechanism in PC9, but this was not seen with THZ1 treatment or with the combination treatment. […] This is unexpected, given that THZ1 should block CDK7-mediated RNAPII phosphorylation. This may be due to the dose or the time point assayed.

[9] = test system: EGFR-T790M-L858R; p53-R172H lung tumors; format: in vivo; conditions: TLP mice
Source text: Mice (both male and female) bred to contain conditional EGFR-T790M-L858R lox-stop-lox (LSL) allele and the p53-dominant negative R172H LSL allele to a final genotype of EGFR-T790M-L858R^LSL/−; p53-R172H^LSL/− maintained on a mixed background, were induced at 6 weeks of age with Adenovirus-Cre recombinase by intranasal administration^45 to allow for mediated recombination of lox-stop-lox modified mutant-EGFR and p53 alleles. […] Mice were imaged using a 7 Tesla BioSpec (Bruker Biospin) optimized for image requisition of pulmonary parenchyma and vessels in mice. Animals were anesthetized with 2% isoflurane IsoFlo; Abbott) in 100% oxygen via a nose cone. Respiratory and cardiac gating was applied to minimize motion artifacts during imaging. 24 slices (1 mm) were collected. Tumor volume per animal was quantified manually, based on a minimum of eight consecutive axial image sequences, using the 3D Slicer. […] Investigators were not blinded to group allocation. Mice were imaged biweekly by MRI until end-stage disease to determine tumor volume. Mice weights and signs of toxicity were monitored daily during the course of treatment. End-stage disease was reached when animals acquired clinical symptoms secondary to their lung tumors, in accordance with Dana Farber Cancer Institute Animal Care and Use Committee regulations.

[10] = test system: A549 cells (KRAS-mutant NSCLC); conditions: 4 weeks, crystal violet staining
Procedure: 100,000 cells were seeded in 6-well plates, allowed to adhere overnight, and then incubated with media containing vehicle or drug as indicated for 4 weeks. Media (and drug) were replaced weekly. At 4 weeks plates were, fixed with 1% paraformaldehyde, and then stained with 0.1% crystal violet as previously described (medicine.yale.edu/lab/kim/resources/protocols/cell/crystal- violet_stain.aspx) to assess colony formation. Results were quantified using an ImageJ Colony Area PlugIn.^44

Question: Which “gene expression (transcriptional programs) by RNAseq” value (“gene expression … by RNAseq” for short) [1] does the source give for `CCN1CCN(c2ccc(Nc3cc(N(C)C(=O)Nc4c(Cl)c(OC)cc(OC)c4Cl)ncn3)cc2)CC1` [BGJ398] here?
Answer: transcriptionally distinct from the parental population; also recorded: up-regulated the expression of genes involved in pro-survival programs

Question: What about the “gene expression of the top 200 up-regulated genes with BGJ398 treatment” value ([1]; log2-normalized FPKM, two-tailed t-test) of the same compound?
Answer: significant increase in gene expression

Question: And the resistance emergence (RT112 cells)?
Answer: led to resistance emergence

Question: And the “H3K27Ac ChIP-Seq signal at enhancers” value [2]?
Answer: significant increase in H3K27Ac signal

Question: And the colony formation [3]?
Answer: comparable to control

Question: Which “colony formation, transcription inhibitor alone or in combination with BGJ398” value [3] does the source give for `C[C@H](CCC(=O)O)[C@H]1CC[C@H]2[C@@H]3CC[C@@H]4C[C@H](O)CC[C@]4(C)[C@H]3C[C@H](O)[C@]12C` [DCA] here?
Answer: modest results, even in combination

Question: Which “colony formation, transcription inhibitor alone or in combination with BGJ398” value [3] does the source give for `C=CC(=O)Nc1cccc(Nc2cc(N3CCCCC3CCO)nc3c(CC)cnn23)c1` (stereo not drawn) [E9] here?
Answer: works as well as THZ1

Question: How did the RNAPII phosphorylation [4] turn out when `CN(C)C/C=C/C(=O)Nc1ccc(C(=O)Nc2cccc(Nc3ncc(Cl)c(-c4c[nH]c5ccccc45)n3)c2)cc1` [THZ1] was run?
Answer: again increased

Question: What about the ERBB2 activation [5] of the same compound?
Answer: blocked ERBB2 activation

Question: And the RNAPII phosphorylation [5]?
Answer: increase in RNAPII phosphorylation

Question: What about the FRA1 protein levels ([5]; BGJ398 1 μM, THZ1 100 nM) of the same compound?
Answer: nor did it restore FRA1 levels

Question: And the STAT1 phosphorylation ([5]; BGJ398 1 μM, THZ1 100 nM)?
Answer: blocked STAT1 phosphorylation

Question: What about the “p-STAT3 (STAT3 phosphorylation/activation)” value ([5]; BGJ398 1 μM, THZ1 100 nM, alone or combined) of the same compound?
Answer: does not inhibit the feedback activation of STAT3; also recorded: did not affect the phosphorylation status of STAT3; also recorded: not blocking the activation of p-STAT3

Question: And the “gene expression … by RNAseq” value [1]?
Answer: attenuation of these programs

Question: What about the “gene expression … by RNAseq” value [6] of the same compound?
Answer: attenuation of these programs

Question: What about the “IL-6 levels in cell culture supernatants” value (IL-6) of the same compound?
Answer: suppressed the increase in IL-6 levels

Question: And the RNAPII phosphorylation [7]?
Answer: again increased

Question: And the colony formation [3]?
Answer: comparable to control

Question: What about the FRA1 protein levels [8] of the same compound?
Answer: nor did it restore FRA1 levels

Question: And the RNAPII phosphorylation [8]?
Answer: increase in RNAPII phosphorylation

Question: What about the STAT1 phosphorylation [8] of the same compound?
Answer: blocked STAT1 phosphorylation

Question: And the FGFR activation ([8]; alone or combined)?
Answer: not seen; also recorded: blocked

Question: And the “p-STAT3 (STAT3 phosphorylation/activation)” value ([8]; alone or combined)?
Answer: does not inhibit the feedback activation of STAT3; also recorded: not blocking the activation of p-STAT3; also recorded: did not affect the phosphorylation status of STAT3

Question: Which results are given for `C=CC(=O)Nc1cccc(Oc2nc(Nc3ccc(N4CCN(C)CC4)cc3OC)ncc2Cl)c1` [WZ4002]?
Answer: time to end-stage disease [9]: end-stage disease by five weeks; tumor response by MRI at two weeks ([9]; WZ4002 50 mg/kg QD oral gavage): initial response; tumor response by MRI at four weeks ([9]; WZ4002 50 mg/kg QD oral gavage, THZ1 10 mg/kg BID i.p.): rapidly developed resistance and rebounded

Question: For `C[C@@H](Oc1cc(-c2cnn(C3CCNCC3)c2)cnc1N)c1c(Cl)ccc(F)c1Cl` [crizotinib], which colony formation [10] is on record?
Answer: ineffective
